According to US20060240405A1, “Method for assaying replication of hbv and testing ... drugs” (priority 2002, published 2006):

System: wild type HBV genomes population
Assay: Phenotypic drug susceptibility assay: Huh7 cells transfected with type-I vector clones, Southern blot of intracellular replicative HBV DNA intermediates
Details: Hepatitis B virus, Huh-7, read-out: IC50 (intracellular replicative HBV DNA intermediates)

Nc1ccn([C@@H]2CS[C@H](CO)O2)c(=O)n1 [lamivudine, β-L-(−)-2′,3′-dideoxy-3′-thiacytidine]
IC50: < 100 nM
